Measured values: patent publication US20250326767A1, “NOVEL BENZOTHIAZOLE DERIVATIVES” (CARNA BIOSCIENCES, INC., priority 2021, published 2025)
pIC50: −log10 of the molar value.

How the values were obtained:
Experiment in all cases: Inhibition test on activity of DYRK family, mobility shift assay (MSA)
Assay type in all cases: biochemical
DYRK3 = biological target: T1, DYRK3 (Homo sapiens, UniProt O43781); conditions: ATP 20 μM; FITC-labeled DYRKtide peptide substrate; room temperature 1 hour; read-out: Inhibitory Activity DYRK3 (IC50 class)
T1 construct: purchased Carna Biosciences, Inc. 04-133
T1 sequence (O43781 1-588): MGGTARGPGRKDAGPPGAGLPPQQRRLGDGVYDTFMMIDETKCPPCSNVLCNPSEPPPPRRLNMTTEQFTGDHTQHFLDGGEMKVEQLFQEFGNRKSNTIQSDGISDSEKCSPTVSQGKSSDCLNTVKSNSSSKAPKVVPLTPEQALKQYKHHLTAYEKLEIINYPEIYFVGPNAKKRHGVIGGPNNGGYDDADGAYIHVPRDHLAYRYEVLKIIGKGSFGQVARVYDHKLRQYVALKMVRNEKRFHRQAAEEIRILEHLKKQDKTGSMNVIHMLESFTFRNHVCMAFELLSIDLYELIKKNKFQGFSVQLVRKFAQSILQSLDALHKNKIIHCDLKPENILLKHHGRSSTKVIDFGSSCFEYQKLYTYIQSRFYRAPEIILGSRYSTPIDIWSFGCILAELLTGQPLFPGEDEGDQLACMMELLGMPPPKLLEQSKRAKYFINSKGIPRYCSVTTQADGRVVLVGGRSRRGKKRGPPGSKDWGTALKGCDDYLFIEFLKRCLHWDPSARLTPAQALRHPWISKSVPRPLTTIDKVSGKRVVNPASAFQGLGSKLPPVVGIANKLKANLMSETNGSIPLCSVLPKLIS
Protocol: (§1) The kinase activity was measured by mobility shift assay (MSA) method using QuickScout Screening Assist™ MSA (commercially available kit manufactured by Carna Biosciences, Inc.). The substrate of the kinase reaction used was an FITC-labeled DYRKtide peptide included in the kit. An assay buffer [20 mM HEPES, 0.01% Triton X-100™, 2 mM dithiothreitol, pH 7.5] was used to create a substrate mixture solution with a substrate (4 μM), MgCl2 (20 mM), and ATP (DYRK1A: 100 μM; DYRKIB: 200 μM; DYRK2:40 μM; and DYRK3:20 μM). In addition, kinases (DYRK1A: manufactured by Carna Biosciences, Inc., Cat. No. 04-130; DYRK1B: manufactured by Carna Biosciences, Inc., Cat. No. 04-131; DYRK2; manufactured by Carna Biosciences, Inc., Cat. No. 04-132; and DYRK3; manufactured by Carna Biosciences, Inc., Cat. No. 04-133) were diluted with the assay buffer to prepare enzyme solutions (DYRK1A: 0.2 ng/μL; DYRK1B: 0.08 ng/μL; DYRK2: 0.04 ng/μL; and DYRK3:0.25 ng/μL). The 10 mM solution of the test compound in DMSO was further diluted with DMSO to 10 levels of the concentration (0.00003 mM, 0.0001 mM, 0.0003 mM, 0.001 mM, 0.003 mM, 0.01 mM, 0.03 mM, 0.1 mM, 0.3 mM, and 1 mM), each of which was subjected to 25-fold dilution with the assay buffer to obtain a drug solution (4% DMSO solution). 5 μL of the drug solution or a control solution (4% DMSO-assay buffer), 5 μL of the substrate mixture solution, and 10 μL of the enzyme solution were mixed in the wells of a polypropylene 384-well plate and allowed to react at room temperature for 1 hour, and then the reaction was quenched by adding 60 μL of the termination buffer included in the kit. Subsequently, the quantities of the substrates(S) and the phosphorylated substrate (P) in the reaction solution were measured using LabChip EZ Reader II system (manufactured by Caliper Life Sciences) according to the protocol of the assay kit.
(§2) The heights of the peaks of the “substrate” and the “phosphorylated substrate” were expressed as S and P, respectively, and a blank containing the assay buffer instead of the enzyme solution was also measured.
(§3) The inhibition rate (%) of the test compound was calculated according to the following equation: […]
(§4) wherein, A, B, and C represent P/(P+S) of the blank well, P/(P+S) of the control solution well, and P/(P+S) of the compound-containing well, respectively.
(§5) The IC50 value was calculated via a regression analysis of the inhibition rate and the test compound concentration (logarithmic value).

DYRK1A = biological target: T2, DYRK1A (Homo sapiens, UniProt Q13627); conditions: ATP 100 μM; FITC-labeled DYRKtide peptide substrate; room temperature 1 hour; read-out: Inhibitory Activity DYRK1A (IC50 class)
T2 construct: purchased Carna Biosciences, Inc. 04-130
Protocol: as §1, §2, §3, §4, §5

DYRK2 = biological target: T3, DYRK2 (Homo sapiens, UniProt Q92630); conditions: ATP 40 μM; FITC-labeled DYRKtide peptide substrate; room temperature 1 hour; read-out: Inhibitory Activity DYRK2 (IC50 class)
T3 construct: purchased Carna Biosciences, Inc. 04-132
T3 sequence (Q92630 1-601): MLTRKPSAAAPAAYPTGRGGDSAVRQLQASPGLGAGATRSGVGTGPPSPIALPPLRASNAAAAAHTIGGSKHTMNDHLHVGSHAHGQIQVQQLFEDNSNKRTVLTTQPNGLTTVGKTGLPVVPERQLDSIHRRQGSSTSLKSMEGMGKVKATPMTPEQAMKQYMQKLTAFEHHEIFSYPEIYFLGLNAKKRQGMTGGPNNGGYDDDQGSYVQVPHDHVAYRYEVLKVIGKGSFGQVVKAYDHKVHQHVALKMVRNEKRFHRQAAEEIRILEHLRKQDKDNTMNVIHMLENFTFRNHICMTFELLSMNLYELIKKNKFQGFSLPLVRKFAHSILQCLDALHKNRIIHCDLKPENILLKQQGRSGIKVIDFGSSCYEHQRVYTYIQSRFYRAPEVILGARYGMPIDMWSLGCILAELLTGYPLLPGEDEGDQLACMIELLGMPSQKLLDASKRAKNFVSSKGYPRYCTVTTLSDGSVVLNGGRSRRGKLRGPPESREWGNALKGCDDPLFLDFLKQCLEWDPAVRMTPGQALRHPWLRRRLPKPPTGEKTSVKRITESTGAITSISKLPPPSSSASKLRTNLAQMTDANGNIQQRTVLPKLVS
Protocol: as §1, §2, §3, §4, §5

DYRK1B = biological target: T4, DYRK1B (Homo sapiens, UniProt Q9Y463); conditions: ATP 200 μM; FITC-labeled DYRKtide peptide substrate; room temperature 1 hour; read-out: Inhibitory Activity DYRK1B (IC50 class)
T4 construct: purchased Carna Biosciences, Inc. 04-131
T4 sequence (Q9Y463 whole entry): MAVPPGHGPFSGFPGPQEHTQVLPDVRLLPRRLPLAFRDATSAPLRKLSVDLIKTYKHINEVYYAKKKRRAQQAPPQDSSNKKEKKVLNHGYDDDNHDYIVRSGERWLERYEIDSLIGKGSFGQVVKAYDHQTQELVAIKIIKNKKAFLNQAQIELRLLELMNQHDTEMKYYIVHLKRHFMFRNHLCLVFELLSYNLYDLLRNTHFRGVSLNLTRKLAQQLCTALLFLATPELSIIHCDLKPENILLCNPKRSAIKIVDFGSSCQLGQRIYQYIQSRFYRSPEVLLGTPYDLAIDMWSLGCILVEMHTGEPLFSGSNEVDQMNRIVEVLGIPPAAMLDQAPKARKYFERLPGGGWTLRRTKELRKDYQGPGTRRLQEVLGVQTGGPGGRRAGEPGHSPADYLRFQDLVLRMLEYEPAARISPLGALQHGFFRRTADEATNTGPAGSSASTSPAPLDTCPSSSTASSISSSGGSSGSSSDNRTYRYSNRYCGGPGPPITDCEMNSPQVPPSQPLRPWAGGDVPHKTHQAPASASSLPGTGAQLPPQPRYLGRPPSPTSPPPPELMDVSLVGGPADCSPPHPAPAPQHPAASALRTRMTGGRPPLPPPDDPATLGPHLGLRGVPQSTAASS
Protocol: as §1, §2, §3, §4, §5

SMILES	pIC50 (DYRK3)	pIC50 (DYRK1A)	pIC50 (DYRK2)	pIC50 (DYRK1B)
CC#CC1CCNC(=O)N1c1nc2c3c(ccc2s1)OCCO3 (racemic) [Example 1, (RS)-1-(7,8-dihydro-[1,4]dioxino[2′,3′:5,6]benzo[1,2-d]thiazol-2-yl)-6-(prop-1-yn-1-yl)tetrahydropyrimidin-2(1H)-one]	< 6.00	> 8.00	< 6.00	–
CC#CC1N(c2nc3c4c(ccc3s2)OCC4)C(=O)NC12CC2 (racemic) [Example 2, (RS)-6-(7,8-dihydrobenzofuro[4,5-d]thiazol-2-yl)-7-(prop-1-yn-1-yl)-4,6-diazaspiro[2.4]heptan-5-one]	6.00 to 7.00	> 8.00	6.00 to 7.00	–
CC#CC1CCNC(=O)N1c1nc2c3c(ccc2s1)OCC3 (racemic) [Example 3, (RS)-3-(7,8-dihydrobenzofuro[4,5-d]thiazol-2-yl)-4-(prop-1-yn-1-yl)-tetrahydropyrimidin-2(1H)-one]	6.00 to 7.00	> 8.00	6.00 to 7.00	–
CC#CC1N(c2nc3c4c(ccc3s2)OCCO4)C(=O)NC12CC2 (racemic) [Example 4, (RS)-6-(7,8-dihydro-[1,4]dioxyno[2′,3′:5,6]benzo[1,2-d]thiazol-2-yl)-7-(prop-1-yn-1-yl)-4,6-diazaspiro[2.4]heptan-5-one]	6.00 to 7.00	–	6.00 to 7.00	–
CC#CC1N(c2nc3c4c(ccc3s2)OCC4)C(=O)NC12COC2 (racemic) [Example 9, (RS)-7-(7,8-dihydro-benzofuro[4,5-d]thiazol-2-yl)-8-(prop-1-yn-1-yl)-2-oxa-5,7-diazaspiro[3.4]octan-6-one]	6.00 to 7.00	7.00 to 8.00	< 6.00	–
CC#CC1CCNC(=O)N1c1nc2c3c(ccc2s1)OCCO3 (single isomer, unassigned) [Example 6, 1-(7,8-dihydro-[1,4]dioxyno[2′,3′:5,6]benzo[1,2-d]thiazol-2-yl)-6-(prop-1-yn-1-yl)tetrahydropyrimidin-2(1H)-one]	< 6.00	6.00 to 7.00	< 6.00	–
CC#CC1N(c2nc3c4c(ccc3s2)OCCO4)C(=O)NC12CC2 (single isomer, unassigned) [Example 7, 6-(7,8-dihydro-[1,4]dioxyno[2′,3′:5,6]benzo[1,2-d]thiazol-2-yl)-7-(prop-1-yn-1-yl)-4,6-diazaspiro[2.4]heptan-5-one]	6.00 to 7.00	–	6.00 to 7.00	> 8.00
CC#CC1N(c2nc3c4c(ccc3s2)OCCO4)C(=O)NC12CC2 (single isomer, unassigned) [Example 8, 6-(7,8-dihydro-[1,4]dioxyno[2′,3′:5,6]benzo[1,2-d]thiazol-2-yl)-7-(prop-1-yn-1-yl)-4,6-diazaspiro[2.4]heptan-5-one]	< 6.00	–	< 6.00	–
CC#CC1N(c2nc3c4c(ccc3s2)OCC4)C(=O)NC12CC2 (single isomer, unassigned) [Example 18, 6-(7,8-dihydrobenzofuro[4,5-d]thiazol-2-yl)-7-(prop-1-yn-1-yl)-4,6-diazaspiro[2.4]heptan-5-one]	7.00 to 8.00	> 8.00	6.00 to 7.00	–
CC#CC1N(c2nc3c4c(ccc3s2)OCC4)C(=O)NC12CC2 (single isomer, unassigned) [Example 19, 6-(7,8-dihydrobenzofuro[4,5-d]thiazol-2-yl)-7-(prop-1-yn-1-yl)-4,6-diazaspiro[2.4]heptan-5-one]	< 6.00	< 6.00	< 6.00	–
CC#CC1N(c2nc3c4c(ccc3s2)OCC4)C(=O)NC12CCC2 (single isomer, unassigned) [Example 20, 7-(7,8-dihydrobenzofuro[4,5-d]thiazol-2-yl)-8-(prop-1-yn-1-yl)-5,7-diazaspiro[3.4]octan-6-one]	6.00 to 7.00	> 8.00	< 6.00	–
CC#CC1N(c2nc3c4c(ccc3s2)OCC4)C(=O)NC12CCC2 (single isomer, unassigned) [Example 21, 7-(7,8-dihydrobenzofuro[4,5-d]thiazol-2-yl)-8-(prop-1-yn-1-yl)-5,7-diazaspiro[3.4]octan-6-one]	< 6.00	6.00 to 7.00	< 6.00	–
CC#CC1N(c2nc3c4c(ccc3s2)OCC4)C(=O)NC12CCCC2 (single isomer, unassigned) [Example 22, 3-(7,8-dihydrobenzofuro[4,5-d]thiazol-2-yl)-4-(prop-1-yn-1-yl)-1,3-diazaspiro[4.4]nonan-2-one]	6.00 to 7.00	–	< 6.00	–
CC#CC1N(c2nc3c4c(ccc3s2)OCC4)C(=O)NC12CCCC2 (single isomer, unassigned) [Example 23, 3-(7,8-dihydrobenzofuro[4,5-d]thiazol-2-yl)-4-(prop-1-yn-1-yl)-1,3-diazaspiro[4.4]nonan-2-one]	< 6.00	–	< 6.00	–
CC#C[C@@H]1[C@H](C)CNC(=O)N1c1nc2c3c(ccc2s1)OCC3 (stereo in doubt) [Example 10, (5R*,6S*)-1-(7,8-dihydrobenzofuro[4,5-d]thiazol-2-yl)-5-methyl-6-(prop-1-yn-1-yl)tetrahydropyrimidin-2(1H)-one]	< 6.00	–	< 6.00	–
CC#C[C@@H]1[C@@H](C)CNC(=O)N1c1nc2c3c(ccc2s1)OCC3 (stereo in doubt) [Example 11, (5S*, 6S*)-1-(7,8-dihydrobenzofuro[4,5-d]thiazol-2-yl)-5-methyl-6-(prop-1-yn-1-yl)tetrahydropyrimidin-2(1H)-one]	< 6.00	–	< 6.00	–
CC#C[C@H]1[C@@H](C)CNC(=O)N1c1nc2c3c(ccc2s1)OCC3 (stereo in doubt) [Example 12, (5S*,6R*)-1-(7,8-dihydrobenzofuro[4,5-d]thiazol-2-yl)-5-methyl-6-(prop-1-yn-1-yl)tetrahydropyrimidin-2(1H)-one]	< 6.00	–	< 6.00	6.00 to 7.00
